Like-named read-outs stand apart in the source and are kept apart here.
Assays:
[1] = molecular target: T1, Amα1/Amα8/Amβ1 nAChR (Apis mellifera, UniProt A0A7M7MMZ9+A0A8U0WQ70+A0A8U0WQC0); assay: cell-based; set-up: species or system Xenopus laevis oocytes; details: Oocyte
T1 sequence (A0A7M7MMZ9 44-627): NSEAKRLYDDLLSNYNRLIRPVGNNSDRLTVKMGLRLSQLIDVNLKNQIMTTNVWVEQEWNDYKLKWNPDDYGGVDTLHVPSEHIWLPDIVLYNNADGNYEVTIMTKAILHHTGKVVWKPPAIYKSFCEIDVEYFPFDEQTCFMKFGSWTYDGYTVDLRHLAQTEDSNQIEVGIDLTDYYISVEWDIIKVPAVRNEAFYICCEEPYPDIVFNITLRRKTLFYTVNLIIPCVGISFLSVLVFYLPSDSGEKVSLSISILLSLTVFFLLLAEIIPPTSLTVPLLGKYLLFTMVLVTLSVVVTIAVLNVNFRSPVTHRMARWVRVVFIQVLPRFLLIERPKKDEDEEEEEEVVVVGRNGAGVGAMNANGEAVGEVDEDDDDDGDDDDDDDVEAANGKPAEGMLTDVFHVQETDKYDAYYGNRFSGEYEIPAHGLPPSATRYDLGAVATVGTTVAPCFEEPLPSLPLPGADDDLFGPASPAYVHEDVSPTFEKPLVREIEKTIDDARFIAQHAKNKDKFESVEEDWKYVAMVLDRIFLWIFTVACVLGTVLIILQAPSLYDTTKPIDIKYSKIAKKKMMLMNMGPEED
T1 sequence (A0A8U0WQ70 25-537): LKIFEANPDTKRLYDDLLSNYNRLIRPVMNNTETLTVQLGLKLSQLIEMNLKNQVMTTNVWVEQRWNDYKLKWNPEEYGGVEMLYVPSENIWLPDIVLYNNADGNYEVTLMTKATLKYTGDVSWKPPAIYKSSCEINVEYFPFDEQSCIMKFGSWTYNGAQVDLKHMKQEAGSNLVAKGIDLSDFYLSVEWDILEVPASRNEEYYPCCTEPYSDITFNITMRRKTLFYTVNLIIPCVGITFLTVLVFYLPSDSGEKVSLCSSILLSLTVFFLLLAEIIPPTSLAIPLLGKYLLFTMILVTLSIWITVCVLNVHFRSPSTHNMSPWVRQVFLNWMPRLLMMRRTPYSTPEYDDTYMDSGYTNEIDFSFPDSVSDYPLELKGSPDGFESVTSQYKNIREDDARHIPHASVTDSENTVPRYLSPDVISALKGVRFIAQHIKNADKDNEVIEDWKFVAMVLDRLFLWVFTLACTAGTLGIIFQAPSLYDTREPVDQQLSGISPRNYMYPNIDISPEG
T1 sequence (A0A8U0WQC0 25-520): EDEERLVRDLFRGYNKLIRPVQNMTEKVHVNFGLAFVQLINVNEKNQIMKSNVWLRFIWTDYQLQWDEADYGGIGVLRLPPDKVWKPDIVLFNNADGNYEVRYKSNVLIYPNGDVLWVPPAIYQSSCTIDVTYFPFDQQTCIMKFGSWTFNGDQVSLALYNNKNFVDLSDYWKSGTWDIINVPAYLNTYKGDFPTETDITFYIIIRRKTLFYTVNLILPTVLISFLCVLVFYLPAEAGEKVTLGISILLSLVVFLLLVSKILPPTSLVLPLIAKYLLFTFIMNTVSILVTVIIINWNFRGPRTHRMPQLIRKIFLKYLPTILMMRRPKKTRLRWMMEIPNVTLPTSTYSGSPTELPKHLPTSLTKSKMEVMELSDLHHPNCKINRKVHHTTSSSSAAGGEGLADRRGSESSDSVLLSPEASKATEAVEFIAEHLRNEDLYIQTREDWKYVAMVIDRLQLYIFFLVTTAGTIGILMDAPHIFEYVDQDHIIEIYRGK

[2] = molecular target: Dα1/Dα2/Dβ1/Dβ2 nAChR (Drosophila melanogaster, UniProt P04755+P09478+P17644+P25162); assay: two-electrode voltage clamp of Xenopus oocytes, agonist concentration-response; type: cell-based

SMILES | Emax ([1]; read-out: Clothianidin / Imax) [%] | EC50 [2] [nM] | Emax ([1]; read-out: Thiacloprid / Imax) [%] | Emax ([1]; read-out: Imidacloprid / Imax) [%]
CN/C(=N\[N+](=O)[O-])NCc1cnc(Cl)s1 [clothianidin] | 78.8 ± 2 |  |  | 
N#C/N=C1\SCCN1Cc1ccc(Cl)nc1 [thiacloprid] |  | 70.8 | 5.8 ± 0.6 | 
O=[N+]([O-])NC1=NCCN1Cc1ccc(Cl)nc1 [imidacloprid] |  | 120 |  | 7.5 ± 0.4

— publication PMC7368294 (Proceedings of the National Academy of Sciences of the …, 2020)
